Reference: patent US20150087627A1, “COMBINATION OF KINASE INHIBITORS AND USES THEREOF” (Intellikine LLC, priority 2011, published 2015)
pIC50: −log10 of the molar value. Where two headings read alike, the source gives them in different places.

Columns and labels:
Type in all cases: biochemical
PI3K α (p110α/p85α) = target: T1, PI3K α (p110α/p85α) (Homo sapiens, UniProt P42336); test: PI 3-Kinase (human) HTRF assay, PI3K α; conditions: read-out: PI3K α IC50
T1 construct: purchased Upstate / Millipore Corporation

PI3K γ (p110γ) = target: T2, PI3K γ (p110γ) (Homo sapiens, UniProt P48736); test: PI 3-Kinase (human) HTRF assay, PI3K γ; conditions: read-out: PI3K γ IC50
T2 construct: purchased Upstate / Millipore Corporation

PI3K δ = target: T3, PI3K δ (Homo sapiens, UniProt O00329); test: PI 3-Kinase (human) HTRF assay, PI3K δ; conditions: read-out: PI3K δ IC50
T3 construct: purchased Upstate / Millipore Corporation

PI3K β (p110β/p85α) = target: T4, PI3K β (p110β/p85α) (Homo sapiens, UniProt P42338); test: PI 3-Kinase (human) HTRF assay, PI3K β; conditions: read-out: PI3K β IC50
T4 construct: purchased Upstate / Millipore Corporation
T4 sequence (P42338 whole entry): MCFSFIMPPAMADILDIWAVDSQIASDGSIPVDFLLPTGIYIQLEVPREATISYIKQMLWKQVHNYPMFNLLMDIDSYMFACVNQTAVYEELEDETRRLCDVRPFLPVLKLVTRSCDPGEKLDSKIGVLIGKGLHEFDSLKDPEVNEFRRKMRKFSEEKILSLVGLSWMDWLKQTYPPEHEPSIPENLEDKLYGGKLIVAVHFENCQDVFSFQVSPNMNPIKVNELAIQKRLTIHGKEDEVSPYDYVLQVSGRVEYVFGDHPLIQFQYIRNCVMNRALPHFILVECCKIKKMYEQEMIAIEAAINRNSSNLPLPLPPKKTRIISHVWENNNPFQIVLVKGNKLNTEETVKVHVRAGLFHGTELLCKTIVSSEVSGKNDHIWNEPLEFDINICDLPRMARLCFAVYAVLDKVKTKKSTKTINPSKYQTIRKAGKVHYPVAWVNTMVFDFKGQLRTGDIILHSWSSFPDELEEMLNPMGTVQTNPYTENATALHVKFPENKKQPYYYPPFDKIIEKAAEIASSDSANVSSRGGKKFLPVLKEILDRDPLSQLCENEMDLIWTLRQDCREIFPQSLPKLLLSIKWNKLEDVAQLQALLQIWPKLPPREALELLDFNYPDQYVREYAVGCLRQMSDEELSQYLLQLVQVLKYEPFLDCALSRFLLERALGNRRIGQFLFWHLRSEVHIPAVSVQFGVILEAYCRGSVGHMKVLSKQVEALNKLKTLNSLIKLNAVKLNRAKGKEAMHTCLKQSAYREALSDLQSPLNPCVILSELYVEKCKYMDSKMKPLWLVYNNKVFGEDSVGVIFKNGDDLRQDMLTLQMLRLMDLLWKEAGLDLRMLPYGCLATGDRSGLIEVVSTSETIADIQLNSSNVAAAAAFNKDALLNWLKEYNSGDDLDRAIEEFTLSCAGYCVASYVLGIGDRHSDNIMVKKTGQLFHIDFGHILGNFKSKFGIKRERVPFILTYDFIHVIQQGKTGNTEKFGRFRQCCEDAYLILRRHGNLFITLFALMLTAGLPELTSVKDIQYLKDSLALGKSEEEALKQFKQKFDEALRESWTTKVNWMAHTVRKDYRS
T4 sequence (P27986 whole entry partner): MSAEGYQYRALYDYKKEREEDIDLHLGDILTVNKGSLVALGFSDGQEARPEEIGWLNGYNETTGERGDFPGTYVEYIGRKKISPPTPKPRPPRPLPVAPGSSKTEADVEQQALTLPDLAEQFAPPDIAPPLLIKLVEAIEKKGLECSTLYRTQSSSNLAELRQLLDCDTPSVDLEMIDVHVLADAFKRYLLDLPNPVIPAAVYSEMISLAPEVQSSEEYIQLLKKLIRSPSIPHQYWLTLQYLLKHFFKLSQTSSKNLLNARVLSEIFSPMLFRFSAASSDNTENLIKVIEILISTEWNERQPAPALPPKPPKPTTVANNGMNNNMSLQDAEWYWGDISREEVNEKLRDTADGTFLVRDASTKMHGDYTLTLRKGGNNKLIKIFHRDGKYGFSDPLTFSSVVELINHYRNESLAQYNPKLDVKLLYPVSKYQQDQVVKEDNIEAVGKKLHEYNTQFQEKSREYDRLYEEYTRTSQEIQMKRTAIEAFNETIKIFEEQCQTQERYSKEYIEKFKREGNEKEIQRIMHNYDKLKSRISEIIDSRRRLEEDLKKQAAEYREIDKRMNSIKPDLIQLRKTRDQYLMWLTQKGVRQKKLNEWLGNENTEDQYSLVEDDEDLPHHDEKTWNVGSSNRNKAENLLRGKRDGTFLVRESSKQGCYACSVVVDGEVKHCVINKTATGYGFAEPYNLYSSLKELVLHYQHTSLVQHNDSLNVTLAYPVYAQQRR

T3 sequence (O00329 whole entry): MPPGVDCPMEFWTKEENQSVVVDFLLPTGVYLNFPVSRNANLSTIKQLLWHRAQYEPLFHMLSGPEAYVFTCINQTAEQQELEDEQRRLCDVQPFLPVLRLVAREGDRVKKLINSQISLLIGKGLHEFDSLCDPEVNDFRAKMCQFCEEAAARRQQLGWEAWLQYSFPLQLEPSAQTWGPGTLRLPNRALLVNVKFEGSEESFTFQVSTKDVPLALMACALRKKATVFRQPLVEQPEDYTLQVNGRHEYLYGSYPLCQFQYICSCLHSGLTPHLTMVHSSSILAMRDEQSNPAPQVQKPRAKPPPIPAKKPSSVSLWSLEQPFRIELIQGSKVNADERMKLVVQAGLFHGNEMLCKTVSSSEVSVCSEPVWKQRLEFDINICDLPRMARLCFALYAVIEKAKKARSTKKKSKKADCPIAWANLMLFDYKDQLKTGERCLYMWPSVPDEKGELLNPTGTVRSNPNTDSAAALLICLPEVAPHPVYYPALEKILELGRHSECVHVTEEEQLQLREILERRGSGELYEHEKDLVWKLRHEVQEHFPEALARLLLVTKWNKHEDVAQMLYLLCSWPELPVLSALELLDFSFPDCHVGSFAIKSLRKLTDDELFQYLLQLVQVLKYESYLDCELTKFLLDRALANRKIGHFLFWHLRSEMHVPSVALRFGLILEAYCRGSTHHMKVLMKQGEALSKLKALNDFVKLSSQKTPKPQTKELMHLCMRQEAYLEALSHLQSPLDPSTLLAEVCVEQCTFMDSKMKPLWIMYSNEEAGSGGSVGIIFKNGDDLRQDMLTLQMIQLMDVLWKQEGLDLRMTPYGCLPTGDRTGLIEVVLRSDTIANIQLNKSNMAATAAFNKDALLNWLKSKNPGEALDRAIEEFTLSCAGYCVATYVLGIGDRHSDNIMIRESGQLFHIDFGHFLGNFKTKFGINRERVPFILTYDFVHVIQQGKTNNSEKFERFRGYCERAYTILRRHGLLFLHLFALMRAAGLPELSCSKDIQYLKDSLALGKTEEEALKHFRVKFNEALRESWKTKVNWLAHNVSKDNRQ
T3 sequence (P27986 whole entry partner): as the sequence (P27986 whole entry partner) above
T1 sequence (P42336 whole entry): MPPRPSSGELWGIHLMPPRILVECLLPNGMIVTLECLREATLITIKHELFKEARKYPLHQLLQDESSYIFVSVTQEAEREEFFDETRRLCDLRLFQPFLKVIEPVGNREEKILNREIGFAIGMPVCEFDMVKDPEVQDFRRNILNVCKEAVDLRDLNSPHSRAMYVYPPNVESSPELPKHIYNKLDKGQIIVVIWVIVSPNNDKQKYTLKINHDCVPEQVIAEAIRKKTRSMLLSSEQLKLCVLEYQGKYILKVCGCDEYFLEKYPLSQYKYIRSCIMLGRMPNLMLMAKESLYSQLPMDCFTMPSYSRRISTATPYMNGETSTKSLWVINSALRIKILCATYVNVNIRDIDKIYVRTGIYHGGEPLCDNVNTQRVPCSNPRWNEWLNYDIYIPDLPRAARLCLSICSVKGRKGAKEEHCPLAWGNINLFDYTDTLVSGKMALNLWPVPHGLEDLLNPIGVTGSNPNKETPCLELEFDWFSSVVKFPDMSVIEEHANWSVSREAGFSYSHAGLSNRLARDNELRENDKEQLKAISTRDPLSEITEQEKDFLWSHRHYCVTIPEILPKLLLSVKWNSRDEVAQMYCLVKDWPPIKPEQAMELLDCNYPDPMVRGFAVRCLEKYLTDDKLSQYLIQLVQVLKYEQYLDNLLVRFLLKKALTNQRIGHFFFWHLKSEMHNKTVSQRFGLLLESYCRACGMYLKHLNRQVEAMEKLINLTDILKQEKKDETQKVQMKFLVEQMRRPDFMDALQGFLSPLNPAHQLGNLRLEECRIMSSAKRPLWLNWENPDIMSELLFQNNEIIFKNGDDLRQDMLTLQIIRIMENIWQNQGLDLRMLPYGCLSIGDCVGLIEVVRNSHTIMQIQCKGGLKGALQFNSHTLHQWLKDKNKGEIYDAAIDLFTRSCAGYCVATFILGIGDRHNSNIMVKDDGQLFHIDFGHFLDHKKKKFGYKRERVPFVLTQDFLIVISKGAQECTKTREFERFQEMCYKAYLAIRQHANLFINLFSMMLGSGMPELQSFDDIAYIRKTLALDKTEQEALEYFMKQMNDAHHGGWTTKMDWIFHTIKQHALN
T1 sequence (P27986 whole entry partner): as the sequence (P27986 whole entry partner) above
T2 sequence (P48736 whole entry): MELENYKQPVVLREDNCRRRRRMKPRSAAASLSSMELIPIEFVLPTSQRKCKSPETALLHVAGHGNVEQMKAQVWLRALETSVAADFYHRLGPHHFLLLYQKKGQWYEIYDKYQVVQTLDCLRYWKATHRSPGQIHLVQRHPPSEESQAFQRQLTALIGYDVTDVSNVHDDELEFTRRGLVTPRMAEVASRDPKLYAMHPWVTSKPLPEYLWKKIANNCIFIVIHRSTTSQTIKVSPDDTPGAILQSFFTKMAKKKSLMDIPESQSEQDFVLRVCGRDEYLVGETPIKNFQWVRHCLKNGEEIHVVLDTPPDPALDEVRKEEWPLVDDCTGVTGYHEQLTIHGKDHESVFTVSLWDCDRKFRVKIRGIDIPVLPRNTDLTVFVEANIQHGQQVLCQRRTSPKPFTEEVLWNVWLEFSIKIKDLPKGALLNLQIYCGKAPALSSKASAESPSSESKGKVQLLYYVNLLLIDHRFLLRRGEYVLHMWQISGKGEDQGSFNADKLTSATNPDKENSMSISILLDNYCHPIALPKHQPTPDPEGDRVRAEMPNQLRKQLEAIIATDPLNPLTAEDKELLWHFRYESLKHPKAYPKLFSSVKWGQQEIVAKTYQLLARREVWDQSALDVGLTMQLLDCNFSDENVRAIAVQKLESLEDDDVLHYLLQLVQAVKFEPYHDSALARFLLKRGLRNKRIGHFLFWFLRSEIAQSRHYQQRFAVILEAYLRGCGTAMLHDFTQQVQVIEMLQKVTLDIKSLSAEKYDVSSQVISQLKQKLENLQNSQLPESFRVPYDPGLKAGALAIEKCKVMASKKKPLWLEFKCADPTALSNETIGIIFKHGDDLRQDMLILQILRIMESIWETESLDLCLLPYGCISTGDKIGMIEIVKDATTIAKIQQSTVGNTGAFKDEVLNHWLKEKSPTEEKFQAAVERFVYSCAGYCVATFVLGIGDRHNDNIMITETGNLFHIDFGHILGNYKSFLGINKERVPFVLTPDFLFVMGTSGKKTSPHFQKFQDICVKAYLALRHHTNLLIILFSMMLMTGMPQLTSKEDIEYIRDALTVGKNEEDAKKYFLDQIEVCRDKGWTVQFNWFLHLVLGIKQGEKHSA

| SMILES | pIC50 (PI3K α (p110α/p85α)) | pIC50 (PI3K γ (p110γ)) | pIC50 (PI3K δ) | pIC50 (PI3K β (p110β/p85α)) | pIC50 (PI3K α (p110α/p85α); Table 4 (PI3K α inhibitors)) | pIC50 (PI3K β (p110β/p85α); Table 4 (PI3K α inhibitors)) | pIC50 (PI3K δ; Table 4 (PI3K α inhibitors)) | pIC50 (PI3K γ (p110γ); Table 4 (PI3K α inhibitors)) |
| --- | --- | --- | --- | --- | --- | --- | --- | --- |
| Nc1nc2cc(-c3ccc4nccc(CCN5CCOCC5)c4c3)ccc2o1 [Compound 27] | > 6.00 | > 7.00 | > 5.00 |  |  |  |  |  |
| Nc1nc2cc(-c3ccc4nccc(N5CCOCC5)c4c3)ccc2o1 [Compound 28] | > 7.00 | > 7.00 | > 6.00 |  |  |  |  |  |
| Nc1nc2cc(-c3ccc4ncnc(N5CCC(O)CC5)c4c3)ccc2o1 [Compound 29] | > 7.00 | > 7.00 | > 7.00 |  |  |  |  |  |
| CN1CCN(c2cc(-c3ccnc4ccc(-c5ccc6oc(N)nc6c5)cc34)ccn2)CC1 [Compound 30] | > 7.00 | > 7.00 | > 7.00 |  |  |  |  |  |
| Nc1nc2cc(-c3ccc4nccc(-c5cccnc5)c4c3)ccc2o1 [Compound 31] | > 7.00 | > 7.00 | > 7.00 |  |  |  |  |  |
| Nc1nc2cc(-c3ccc4nccc(NC5CCOCC5)c4c3)ccc2o1 [Compound 32] | > 5.00 | > 5.00 | < 5.00 |  |  |  |  |  |
| Nc1nc2cc(-c3ccc4nccc(NCCN5CCOCC5)c4c3)ccc2o1 [Compound 33] | > 7.00 | > 6.00 | > 6.00 |  |  |  |  |  |
| CN1CCC(Oc2ncnc3ccc(-c4ccc5oc(N)nc5c4)cc23)CC1 [Compound 34] | > 7.00 | > 6.00 | > 6.00 |  |  |  |  |  |
| Nc1nc2cc(-c3ccc4ncc(-c5cn[nH]c5)n4c3)ccc2o1 [Compound 38] | > 7.00 | > 7.00 | > 7.00 |  |  |  |  |  |
| CN1CCN(c2cc(-c3cnc4ccc(-c5ccc6oc(N)nc6c5)cn34)ccn2)CC1 [Compound 43] | > 7.00 | > 7.00 | > 7.00 |  |  |  |  |  |
| CC(=O)N1CCC(n2cnc3ccc(-c4ccc5oc(N)nc5c4)cc3c2=O)CC1 [Compound 66] | > 5.00 | < 5.00 | < 5.00 |  |  |  |  |  |
| CS(=O)(=O)N1CCC(n2cnc3ccc(-c4ccc5oc(N)nc5c4)cc3c2=O)CC1 [Compound 67] | > 6.00 | < 5.00 | < 5.00 |  |  |  |  |  |
| CN1CCN([C@H]2CCN(c3cnc4ccc(-c5ccc6oc(N)nc6c5)cc4n3)C2)CC1 [Compound 381] | > 7.00 | > 5.00 |  | > 6.00 |  |  |  |  |
| Nc1nc2cc(-c3ccc4ncc(C(=O)N5CC(N6CC[C@@H](O)C6)C5)n4c3)ccc2o1 [Compound 470] | > 7.00 | > 6.00 |  | > 5.00 |  |  |  |  |
| Nc1n[nH]c2c(-c3ccc4ncc(C(=O)N5CCOCC5)n4c3)cccc12 [Compound 490] | < 5.00 |  | < 5.00 | < 5.00 |  |  |  |  |
| O=C(c1cnc2ccc(-c3cnc4[nH]ncc4c3)cn12)N1CCOCC1 [Compound 492] |  | > 5.00 | > 5.00 | > 5.00 |  |  |  |  |
| Nc1nc2c(-c3ccc4ncc(C(=O)N5CCOCC5)n4c3)cccc2o1 [Compound 496] | > 6.00 |  | < 5.00 | > 5.00 |  |  |  |  |
| C[C@@H]1CN(C2CN(C(=O)c3cnc4ccc(-c5ccc6oc(N)nc6c5)cn34)C2)CCN1 [Compound 511] | > 7.00 |  | > 6.00 | > 5.00 |  |  |  |  |
| C[C@H]1CN(C2CN(C(=O)c3cnc4ccc(-c5ccc6oc(N)nc6c5)cn34)C2)CCN1C [Compound 512] | > 7.00 |  | > 6.00 | > 5.00 |  |  |  |  |
| CC1(C)COCCN1C(=O)c1cnc2ccc(-c3ccc4oc(N)nc4c3)cn12 [Compound 514] | > 6.00 |  | < 5.00 | < 5.00 |  |  |  |  |
| CC(C)N1CCC(n2cnc3ccc(-c4cnc(Cl)c(NS(=O)(=O)c5ccccc5)c4)cc3c2=O)CC1 [Compound 521] | > 7.00 |  | > 7.00 | > 7.00 |  |  |  |  |
| Cc1ncc(-c2ccc3ncc(C(=O)N4CCOCC4)n3c2)c2cn[nH]c12 [Compound 530] | > 7.00 | < 5.00 |  | < 5.00 |  |  |  |  |
| O=C(c1cnc2ccc(-c3ccnc4[nH]ncc34)cn12)N1CCOCC1 [Compound 532] |  | < 5.00 | < 5.00 | < 5.00 |  |  |  |  |
| Cc1ncc(-c2ccc3ncc(C(=O)N4C5CCC4COC5)n3c2)c2cn[nH]c12 [Compound 538] | > 7.00 | < 5.00 |  | < 5.00 |  |  |  |  |

| SMILES | pIC50 (PI3K α (p110α/p85α)) | pIC50 (PI3K γ (p110γ)) | pIC50 (PI3K δ) | pIC50 (PI3K β (p110β/p85α)) | pIC50 (PI3K α (p110α/p85α); Table 4 (PI3K α inhibitors)) | pIC50 (PI3K β (p110β/p85α); Table 4 (PI3K α inhibitors)) | pIC50 (PI3K δ; Table 4 (PI3K α inhibitors)) | pIC50 (PI3K γ (p110γ); Table 4 (PI3K α inhibitors)) |
| --- | --- | --- | --- | --- | --- | --- | --- | --- |
| Nc1nc2cc(-c3cnc4ccc(C(=O)N5CCOCC5)cn34)ccc2o1 [Compound 541] | < 5.00 |  | < 5.00 | < 5.00 |  |  |  |  |
| Nc1nc2cc(-c3ccc4ncc(N5CCOCC5)nc4n3)ccc2o1 [Compound 553] |  |  |  |  | > 7.00 | > 6.00 | < 5.00 |  |
| CCOC(=O)N1CCN(c2cnc3ccc(-c4ccc5oc(N)nc5c4)nc3n2)CC1 [Compound 557] |  |  |  |  | > 7.00 | > 6.00 | > 6.00 |  |
| CS(=O)(=O)N1CCN(C2CN(c3cnc4ccc(-c5ccc6oc(N)nc6c5)nc4n3)C2)CC1 [Compound 559] |  |  |  |  | > 7.00 | < 5.00 |  | > 6.00 |
| CCOC(=O)N1CC=C(c2cnc3ccc(-c4ccc5oc(N)nc5c4)nc3n2)CC1 [Compound 560] |  |  |  |  | > 7.00 |  |  | > 7.00 |
| Nc1nc2cc(-c3ccc4ncc(C5=CCOCC5)nc4n3)ccc2o1 [Compound 562] |  |  |  |  | > 7.00 |  | < 5.00 | > 7.00 |
| C[C@@H]1COCCN1c1cnc2ccc(-c3ccc4oc(N)nc4c3)nc2n1 [Compound 565] |  |  |  |  | > 7.00 |  |  | > 7.00 |
| C[C@H]1COCCN1c1cnc2ccc(-c3ccc4oc(N)nc4c3)nc2n1 [Compound 566] |  |  |  |  | > 7.00 |  | < 5.00 | > 7.00 |
| C[C@H]1CN(C2CN(c3cnc4ccc(-c5ccc6oc(N)nc6c5)nc4n3)C2)CCN1C [Compound 572] |  |  |  |  | > 7.00 | < 5.00 |  | < 5.00 |
| CN1CCN(c2cnc3ccc(-c4ccc5oc(N)nc5c4)nc3c2)CC1 [Compound 575] |  |  |  |  | > 7.00 | > 7.00 |  | > 6.00 |
| CCN(CC)c1cnc2ccc(-c3ccc4oc(N)nc4c3)nc2n1 [Compound 577] |  |  |  |  | > 6.00 | < 5.00 |  | > 6.00 |
| C[C@@H]1CN(c2cnc3ccc(-c4ccc5oc(N)nc5c4)nc3n2)CCN1 [Compound 578] |  |  |  |  | > 7.00 | > 7.00 |  | > 6.00 |
| Nc1nc2cc(-c3ccc4ncc(N5CC6CCC(C5)O6)cc4n3)ccc2o1 [Compound 579] |  |  |  |  |  |  |  | > 6.00 |
| C[C@@H](N)C(=O)N1CCN(c2cnc3ccc(-c4ccc5oc(N)nc5c4)nc3n2)CC1 [Compound 582] |  |  |  |  | > 7.00 |  |  | > 6.00 |
| CC(C)N1CCN(c2cnc3ccc(-c4ccc5oc(N)nc5c4)nc3n2)CC1 [Compound 583] |  |  |  |  | > 7.00 | > 6.00 |  | > 6.00 |
| CCOC(=O)N1CCN(c2cnc3ccc(-c4ccc5oc(N)nc5c4)nc3c2)CC1 [Compound 587] |  |  |  |  | > 7.00 |  | < 5.00 | > 7.00 |
| Nc1nc2cc(-c3ccc4ncc(N5CCC(O)CC5)nc4n3)ccc2o1 [Compound 596] |  |  |  |  | > 7.00 |  | < 5.00 | > 7.00 |
| C[C@@H]1CN(C2CN(c3cnc4ccc(-c5ccc6oc(N)nc6c5)nc4c3)C2)CCN1 [Compound 607] |  |  |  |  | > 7.00 |  | > 6.00 | > 6.00 |
| Nc1nc2cc(-c3ccc4ncc(N5CCC(O)CC5)cc4n3)ccc2o1 [Compound 613] |  |  |  |  | > 7.00 |  |  | > 6.00 |
| C[C@@H]1COCCN1C1CN(c2cnc3ccc(-c4ccc5oc(N)nc5c4)nc3c2)C1 [Compound 617] |  |  |  |  | > 7.00 |  | > 6.00 | > 7.00 |
| C[C@H]1COCCN1C1CN(c2cnc3ccc(-c4ccc5oc(N)nc5c4)nc3c2)C1 [Compound 619] |  |  |  |  | > 7.00 | < 5.00 | < 5.00 |  |
| Nc1nc2cc(-c3ccc4ncc(N5CC(N6CCN(C7CC7)CC6)C5)cc4n3)ccc2o1 [Compound 621] |  |  |  |  | > 7.00 |  |  | > 6.00 |
| CN1CCN(c2ccc3ncc(-c4ccc5oc(N)nc5c4)cc3n2)CC1 [Compound 631] |  |  |  |  |  |  | < 5.00 | < 5.00 |
